What is called EC50 is the concentration that produces a half-maximal response. In general, IC50 refers to the concentration needed to halve the response being measured. Read a low IC50 as higher potency.

Counter-ions that a name gives are not always drawn.

For 14 compounds, EC50 and IC50 results are on record in patent publication US9199983B2, “3-aryl-6-aryl-[1,2,4]triazolo[4,3-α]pyridines as inhibitors of cell proliferation and the use thereof” (priority 2010, dated 2015).

For experiment [1], the system named is caspase-3 activation. The experiment in a line: Caspase-3 activation (apoptosis induction) in T-47D cells. Conditions: Homo sapiens; T47D cells, 24 h treatment; read-out: EC50 to induce caspase-3 activation, T47D. It is filed as cell-based. As for the experimental part:
Identification of 3-(2-methoxyphenyl)-6-(4-methoxyphenyl)-[1,2,4]triazolo[4,3-a]pyridine and analogs as inducers of apoptosis in solid tumor cells
Human breast cancer cell line T-47D and lung cancer cell line A549, growing in DMEM/F12+10% FBS media were seeded to a density of 20000 cells/well in 96-well cell culture plate and grew overnight (18-24 h) in CO2 cell culture incubator at 37° C. Next day the medium were removed by aspiration and […] fresh growth media was added to each well followed by […] of growth media containing 10× concentration of reference or testing compounds with 10% DMSO. Twenty four hours later, cell culture plates were centrifuged at 1000 g for 5 min and the supernatant was removed by emptying contents into a reservoir. Fifty μl of Lysis Buffer (10 mM Tris, pH7.5, 0.1M NaCl, 1 Mm EDTA, 0.01% Triton X-100) was added to each well and the plates were incubated with gentle agitation on an orbital shaker at 4° C. for 30 min. The plates were then centrifuged at 1000 g for 10 min at 4° C. and 20 μl of the supernatant was transferred from each well to a corresponding well in a black 384-well. Twenty μl of caspase-3 assay buffer (20 mM PIPES, pH7.4, 4 Mm EDTA and 0.2% CHAPS) containing 20 μM fluorogenic caspase-3 substrate ((Ac-DEVD)2-R110, AnaSpec Cat #60304-5) was added to each well. The samples were mixed by agitation and incubated at 37° C. for 3 h. The fluorescent intensity of each well was read on a fluorescent plate reader (Varioskan Flash, Thermo Fisher Scientific) with excitation wavelength at 496 nm and emission wavelength at 520 nm. The activity of compounds on caspase-3 activation was determined by plotting the relative fluorescent unit (RFU) against the testing concentrations of the compounds. The EC50 values were determined by fitting the above responding curves into Prism sigmoidal dose-response equation (GraphPad Software, Inc).

In experiment [2] the test system is Human lung cancer cell line A549. The experiment in a line: MTT cancer cell cytotoxicity assay, A549. It is filed as cell-based. The following applies: Homo sapiens, A549 cells, 48-72 h. The essentials: (§1)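 Seeding: HepG2 and A549 at 3000, SMMC7721 at 5000, B16F10 at 2000 cells/well, attached overnight. Compounds (10 μM to 1 nM, triplicate) were applied for 48-72 h at 37 °C, followed by 4 h MTT. A550 minus A660 was fitted for IC50, with untreated wells as maximum and reference-drug total kill as background.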

Experiment [3] has as its system breast cancer cell line T47D. The experiment in a line: MTT cancer cell cytotoxicity assay, T47D. It is filed as cell-based, human. The following applies: Homo sapiens, T47D cells, 48-72 h. The essentials: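 Human T47D breast cancer cells, cultured per ATCC recommendations with 10% fetal bovine serum and penicillin/streptomycin, were plated at 3000 cells/well in 96-well plates. After overnight attachment they were exposed in triplicate to compounds (10 μM to 1 nM) for 48-72 h. MTT was then added for 4 h and the formazan dissolved in DMSO. Absorbance at 550 nm minus 660 nm was fitted in Prism 5 to give IC50.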

Experiment [4] concerns liver cancer cell line HepG2. The experiment in a line: MTT cancer cell cytotoxicity assay, HepG2. Type of experiment: cell-based, human. Conditions: Homo sapiens, HepG2 cells, 48-72 h. Summed up: as §1
Experiment [5] relates to liver cancer cell line SMMC7721. Description: MTT cancer cell cytotoxicity assay, SMMC7721. It is filed as cell-based, human. The following applies: Homo sapiens, SMMC-7721, SMMC7721 cells, 48-72 h. The essentials: as §1
In experiment [6] the test system is mouse melanoma cell line B16F10. The experiment in a line: MTT cancer cell cytotoxicity assay, B16F10. Type of experiment: cell-based. The following applies: Mus musculus, B16-F10, B16F10 cells, 48-72 h. On the procedure: Identification of 3-(2-methoxyphenyl)-6-(4-methoxyphenyl)-[1,2,4]triazolo[4,3-a]pyridine and analogs as inhibitors of cell proliferation that were evaluated with standard MTT cancer cell cytotoxicity assay (IC50)
Human lung cancer cell line A549, breast cancer cell line T47D, liver cancer cell lines HepG2 and SMMC7721 as well as a mouse melanoma cell line B16F10 were used in the study. The cells were cultured in corresponding growth media recommended by American Type Culture Collection (ATCC) with the supplementation of penicillin G (100 U/ml)/streptomycin (100 µg/ml), and 10% fetal bovine serum (Hangzhou Sijiqing Biological Engineering Materials, Co., Ltd. China) at 37° C. in a humidified atmosphere containing 5% CO2. Cells at about 80% confluency were harvested by trypsinization. Cells were centrifuged, re-suspended in fresh growth media and counted. Corresponding numbers of cells were seeded to 96-well cell culture plates (HepG2 cell, T-47D and A549 cells at 3000 cells/well, SMMC-7721 cells at 5000 cells/well and B16F10 cells at 2000 cells/well) in a total volume of […]. Cells were incubated in CO2 incubator over night to allow the cells to attach. In next day, […] of medium containing testing (from 10 μM to 1 nM) or reference compounds was added to each well of the cells. Media without compound were used as 100% control. Cells were treated with each concentration of compounds in triplicates to ensure data accuracy. Cells were incubated with compounds in CO2 incubator for an additional 48-72 h at 37° C. After incubation, cells were removed from the CO2 incubator and […] of 5 mg/ml MTT (3-(4,5-dimethylthiazole-2-yl)-2,5-diphenyltetrazoliumbromide, Sigma) solution in PBS was added to each well. Cells were returned to CO2 incubator and incubated for additional 4 h. After the incubation, media were removed by aspiration and […] DMSO was added to each well. Plates were sealed with aluminum foil and shaked mildly on an orbital shaker for 10 min at room temperature. The absorption was measured at 550 nm with a plate reader (Varioskan Flash, Thermo Fisher Scientific) with 660 nm reading used as background control. The relative absorbance readings were calculated by subtracting readings at 660 nm from that at 550 nm. The relative absorbance was plotted again the concentrations of the testing compounds and the plots were fitted with a one-site lg(IC50) equation using Prism 5 software (GraphPad Software, Inc). The equation used in the curve fitting is as follows: relative absorbance reading=background reading+(maximal reading−brackground reading)/(1+10 ^(compound concentration-log IC50)). The background reading used in the calculation was obtained with 100% cell death using a reference anticancer drug, whereas the maximal reading was obtained in the well with no added compound. The IC50 value calculated from the equation represents the cytotoxic potency of a particular compound.

For `COc1ccccc1-c1nnc2ccc(-c3ccc(N(C)C)cc3)cn12` [Example 17, 6-(4-Dimethylaminophenyl)-3-(2-methoxyphenyl)-[1,2,4]triazolo[4,3-a]pyridine], the EC50 in experiment [1] stood at 86 nM. Further, the IC50 in experiment [2] was 29 nM; in experiment [3] it was 65 nM; in experiment [4], 48 nM; in experiment [5], 14 nM.

`COc1ccc(-c2ccc3nnc(-c4ccccc4OC)n3c2)cc1O` [Example 20, 6-(3-Hydroxy-4-methoxyphenyl)-3-(2-methoxyphenyl)-[1,2,4]triazolo[4,3-a]pyridine]: the EC50 in experiment [1] was 16 nM. Further, the IC50 is 13 nM in experiment [2]; 18 nM in experiment [6]; 18 nM in experiment [3]; 11 nM in experiment [4]; over 10000 nM in experiment [5].

On to `COc1ccc(-c2ccc3nnc(-c4ccccc4OC)n3c2)cc1N` [Example 46, 6-(3-Amino-4-methoxyphenyl)-3-(2-methoxyphenyl)-[1,2,4]triazolo[4,3-a]pyridine hydrochloride], for which, in experiment [1], the EC50 came to 23 nM. For the same compound, the IC50 stood at 9.4 nM in experiment [2]; 3.7 nM in experiment [6]; 9.7 nM in experiment [3]; 9.9 nM in experiment [4]; 5.7 nM in experiment [5].

In the case of `CNc1ccc(-c2ccc3nnc(-c4ccccc4OC)n3c2)cc1` [Example 48, 6-(4-Methylaminophenyl)-3-(2-methoxyphenyl)-[1,2,4]triazolo[4,3-a]pyridine hydrochloride], the EC50 in experiment [1] was found to be 74 nM. Besides, the IC50 in experiment [2] stood at 26 nM; in experiment [3], 18 nM; in experiment [4] it was 31 nM; in experiment [5], 11 nM.

`COc1ccc(-c2ccc3nnc(-c4ccc(Cl)cc4OC)n3c2)cc1F` [Example 49, 3-(4-Chloro-2-methoxyphenyl)-6-(3-fluoro-4-methoxyphenyl)-[1,2,4]triazolo[4,3-a]pyridine]: the EC50 in experiment [1] is 9.3 nM. Further, the half-maximal inhibitory concentration (IC50) turned out to be 4.9 nM in experiment [2]; 4.9 nM in experiment [6]; 4.5 nM in experiment [3]; 3.3 nM in experiment [4]; 4.6 nM in experiment [5].

Regarding `COc1ccc(-c2ccc3nnc(-c4ccc(Cl)cc4OC)n3c2)cc1N` [Example 50, 6-(3-Amino-4-methoxyphenyl)-3-(4-chloro-2-methoxyphenyl)-[1,2,4]triazolo[4,3-a]pyridine], the EC50 in experiment [1] worked out at 3.5 nM. In addition, the IC50 was determined as 1.7 nM in experiment [2]; 1.6 nM in experiment [6]; 1.1 nM in experiment [3]; 1.4 nM in experiment [4]; 1.3 nM in experiment [5].

Turning to `COc1ccc(-c2ccc3nnc(-c4ccc(C)cc4OC)n3c2)cc1O` [Example 51, 6-(3-Hydroxy-4-methoxyphenyl)-3-(2-methoxy-4-methylphenyl)-[1,2,4]triazolo[4,3-a]pyridine], the EC50 in experiment [1] came out at 2.8 nM. Also, the concentration for half-maximal inhibition (IC50) in experiment [2] was 4 nM; in experiment [6] it was 2.1 nM; in experiment [3] it was 1.1 nM; in experiment [4], 1.1 nM; in experiment [5], over 10000 nM.

As for `COc1ccc(-c2ccc3nnc(-c4ccc(C)cc4OC)n3c2)cc1N` [Example 52, 6-(3-Amino-4-methoxyphenyl)-3-(2-methoxy-4-methylphenyl)-[1,2,4]triazolo[4,3-a]pyridine], the 50% effective concentration (EC50) in experiment [1] stood at 5.4 nM. Moreover, the IC50 in experiment [2] worked out at 2.6 nM; in experiment [6], 2.1 nM; in experiment [3], 2 nM; in experiment [4] it was 2.3 nM; in experiment [5], 1.8 nM.

As for `COc1ccc(-c2ccc3nnc(-c4ccc(C)cc4OC)n3c2)cc1F` [Example 53, 6-(3-Fluoro-4-methoxyphenyl)-3-(2-methoxy-4-methylphenyl)-[1,2,4]triazolo[4,3-a]pyridine], the concentration for a half-maximal effect (EC50) in experiment [1] was determined as 9.1 nM. Besides, the IC50 in experiment [2] amounted to 7.4 nM; in experiment [6], 6.2 nM; in experiment [3], 6.7 nM; in experiment [4], 5.7 nM; in experiment [5], 8.3 nM.

In the case of `COc1ccc(-c2ccc3nnc(-c4ccc(OC)cc4OC)n3c2)cc1` [Example 71, 3-(2,4-Dimethoxyphenyl)-6-(4-methoxyphenyl)-[1,2,4]triazolo[4,3-a]pyridine], the EC50 in experiment [1] came out at 117 nM. For the same compound, the IC50 in experiment [2] amounted to 16 nM; in experiment [3] it was 22 nM; in experiment [4], 15 nM; in experiment [5], 8.7 nM.

For `CNc1ccc(-c2ccc3nnc(-c4ccc(Cl)cc4OC)n3c2)cc1` [Example 88, 3-(4-Chloro-2-methoxyphenyl)-6-(4-methylaminophenyl)-[1,2,4]triazolo[4,3-a]pyridine], the IC50 in experiment [2] came to 4.4 nM; in experiment [6], 5.1 nM; in experiment [3], 3.6 nM; in experiment [4] it was 6 nM; in experiment [5] it was 1.8 nM.

`COc1cc(Cl)ccc1-c1nnc2ccc(-c3ccc(C)c(N)c3)cn12` [Example 90, 6-(3-Amino-4-methylphenyl)-3-(4-chloro-2-methoxyphenyl)-[1,2,4]triazolo[4,3-a]pyridine]: the concentration for half-maximal inhibition (IC50) came to 7.1 nM in experiment [2]; 4.6 nM in experiment [6]; 5.5 nM in experiment [3]; 5.4 nM in experiment [4]; 2.3 nM in experiment [5].

Regarding `COc1cc(C)ccc1-c1nnc2ccc(-c3ccc(C)c(N)c3)cn12` [Example 91, 6-(3-Amino-4-methylphenyl)-3-(4-methyl-2-methoxyphenyl)-[1,2,4]triazolo[4,3-a]pyridine], the IC50 in experiment [2] is 42 nM; in experiment [6] it was 23 nM; in experiment [3] it was 31 nM; in experiment [4] it was 39 nM; in experiment [5] it was 13 nM.

For the compound `CNc1ccc(-c2ccc3nnc(-c4ccc(C)cc4OC)n3c2)cc1` [Example 92, 6-(4-Methylaminophenyl)-3-(4-methyl-2-methoxyphenyl)-[1,2,4]triazolo[4,3-a]pyridine], the IC50 in experiment [2] is 11 nM; in experiment [6], 7.7 nM; in experiment [3], 8.8 nM; in experiment [4] it was 23 nM; in experiment [5], 23 nM.
